Consider 5 compounds from paper PMC12769732 (Nature Communications, 2025).

SMILES strings stand for the structures. Read-outs that look alike come from different tables or passages of the source.

The subject of experiment [1] is SERT. Particulars: ref 75 (El-Kasaby A, et al.); cited from earlier work.
Experiment [2] has as its target SERT. As to conditions: read-out: reported equilibrium dissociation constant (KD) for SERT; cited from earlier work.
A further experiment addresses DAT WT (Homo sapiens, UniProt Q01959). Kind of experiment: [3H]Dopamine transport assay, wild-type DAT. The class given is cell-based.
The test system of experiment [3] is SERT. Particulars: cited from earlier work.
A further experiment deals with DAT F326A (Homo sapiens, UniProt Q01959, F326A). Put plainly: [3H]Dopamine transport assay, DAT F326A mutant. Particulars: for IC50: IC50 of [3H]dopamine uptake, F326A mutant of DAT, HEK-293F cells, n = 3. Format: cell-based.
Sequence of DAT F326A (Q01959 57-620 F326A limits assumed): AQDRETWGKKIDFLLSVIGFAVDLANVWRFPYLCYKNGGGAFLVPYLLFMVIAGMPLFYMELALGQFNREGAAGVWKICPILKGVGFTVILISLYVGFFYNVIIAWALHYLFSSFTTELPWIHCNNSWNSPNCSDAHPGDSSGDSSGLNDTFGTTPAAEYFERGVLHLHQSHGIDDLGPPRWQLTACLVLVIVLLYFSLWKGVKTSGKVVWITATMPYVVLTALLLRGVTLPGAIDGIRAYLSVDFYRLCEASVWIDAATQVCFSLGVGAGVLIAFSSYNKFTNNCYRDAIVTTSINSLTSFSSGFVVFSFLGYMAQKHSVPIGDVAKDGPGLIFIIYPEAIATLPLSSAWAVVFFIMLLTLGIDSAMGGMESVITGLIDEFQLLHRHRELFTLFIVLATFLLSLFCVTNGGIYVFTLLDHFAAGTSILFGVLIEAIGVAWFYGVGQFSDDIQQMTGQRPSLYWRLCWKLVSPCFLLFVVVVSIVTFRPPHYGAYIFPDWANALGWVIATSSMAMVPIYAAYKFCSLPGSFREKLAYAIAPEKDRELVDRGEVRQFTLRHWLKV
A further experiment concerns the target DAT S422A (Homo sapiens, UniProt Q01959, S422A). Put plainly: [3H]Dopamine transport assay, DAT S422A mutant. Format: cell-based.
For experiment [4], the system named is DAT. Particulars: cited from earlier work.
A further experiment has as its system NET. As to conditions: cited from earlier work.
The next experiment concerns the target DAT V152A (Homo sapiens, UniProt Q01959, V152A). Put plainly: [3H]Dopamine transport assay, DAT V152A mutant. Format: cell-based.
Experiment [5] concerns the target DAT (Homo sapiens, UniProt Q01959). Particulars: close analog of nefazodone; no reference given; cited from earlier work.
Experiment [6] has as its system DAT. Kind of experiment: Reported inhibition of DAT. The class given is biochemical. As to conditions: relative to tesofensine.

Sequence of DAT V152A (Q01959 57-620 V152A limits assumed): as the sequence (Q01959 57-620 F326A limits assumed) above, with V96A, A270F counted along it
Sequence of DAT WT (Q01959 57-620 limits assumed): as the sequence (Q01959 57-620 F326A limits assumed) above, with A270F counted along it
Sequence of DAT S422A (Q01959 57-620 S422A limits assumed): as the sequence (Q01959 57-620 F326A limits assumed) above, with A270F, S366A counted along it
Sequence of DAT (Homo sapiens, UniProt Q01959) (Q01959 whole entry): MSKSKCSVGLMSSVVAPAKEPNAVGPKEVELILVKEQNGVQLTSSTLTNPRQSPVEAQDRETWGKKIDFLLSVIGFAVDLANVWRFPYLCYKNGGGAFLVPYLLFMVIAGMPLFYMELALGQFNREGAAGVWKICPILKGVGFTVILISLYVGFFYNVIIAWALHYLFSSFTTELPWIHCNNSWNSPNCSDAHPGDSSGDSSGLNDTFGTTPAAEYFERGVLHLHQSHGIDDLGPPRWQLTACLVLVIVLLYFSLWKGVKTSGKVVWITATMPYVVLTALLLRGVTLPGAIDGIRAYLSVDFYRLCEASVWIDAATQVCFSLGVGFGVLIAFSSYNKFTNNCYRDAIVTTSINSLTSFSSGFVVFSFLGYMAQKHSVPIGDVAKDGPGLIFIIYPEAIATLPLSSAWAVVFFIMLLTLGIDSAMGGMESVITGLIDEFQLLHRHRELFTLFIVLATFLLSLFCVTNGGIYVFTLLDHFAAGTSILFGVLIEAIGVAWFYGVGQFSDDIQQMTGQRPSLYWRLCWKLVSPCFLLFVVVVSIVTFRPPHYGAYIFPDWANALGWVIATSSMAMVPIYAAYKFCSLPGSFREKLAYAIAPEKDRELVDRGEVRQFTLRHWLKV

The Kd is a measure of binding affinity in units of concentration. As to `CCc1nn(CCCN2CCN(c3cccc(Cl)c3)CC2)c(=O)n1CCOc1ccccc1` [nefazodone], the “mode of inhibition of SERT” value in the experiment on SERT [1] is reported as “non-competitive”. Further, the Kd on SERT [2] is 200 nM.
A word on the IC50: it is the concentration at which inhibition is half-maximal. Take `N[C@@H]1CC[C@@H](c2ccc(Cl)c(Cl)c2)c2ccccc21` [dasotraline]: the IC50 was 2.43 nM against DAT WT; 15 nM in the experiment on SERT [3] (read-out: reported IC50 on SERT); 3740 nM at DAT F326A; 4700 nM at DAT S422A; 3 nM with DAT [4] (read-out: reported IC50 on DAT); 4 nM in the experiment with NET (read-out: reported IC50 on NET). Also, the “fold increase of IC50 (decrease of inhibitory potency) versus DAT WT” value on DAT F326A (F326A mutant versus WT) is “approximately 1500 fold”. For the same compound, on DAT S422A (S422A mutant versus WT), the “fold increase of IC50 versus DAT WT” value was 1900 fold.
With `c1ccc2cc([C@]34CNC[C@H]3C4)ccc2c1` [centanafadine], the IC50 was 116 nM on DAT WT; 246 nM at DAT V152A; 83 nM in the experiment with SERT [3] (read-out: IC50 of serotonin reuptake); 2090 nM at DAT F326A; 38 nM in the experiment with DAT [4] (read-out: IC50 of dopamine reuptake); 6 nM with NET (read-out: IC50 of norepinephrine reuptake). The “change of IC50 versus DAT WT” value on DAT V152A (V152A mutant versus WT) was “nearly doubling”.
On to `O=c1n(CCCN2CCN(c3cccc(Cl)c3)CC2)nc2ccccn12` [trazodone], for which the “affinity for DAT compared with nefazodone” value at DAT [5] was “markedly reduced”.
Consider `COC(=O)[C@H]1[C@@H](OC(=O)c2ccccc2)C[C@@H]2CC[C@H]1N2C` [cocaine], for which, in the experiment with DAT [6], the “fold lower affinity for DAT than tesofensine” value was 50 fold.
